The term melting point denotes the temperature of the solid-liquid transition.

Results on 89 compounds are retold here after a melting point compilation (Tetko et al.; mined from patent text by program, amines drawn as free bases though some values may be those of a salt).

Some results are limits rather than exact numbers.

As for `CC1CN(c2c(F)cc3c(=O)c(C(=O)O)cn(C4CC4)c3c2OC(F)F)CCN1` (centres undefined), the melting point lay within 223 to 225 °C.

Regarding `CCOCC1(C)CCCSc2cc(/C=C/c3ccc(C(=O)O)cc3)ccc21` (centres undefined), the melting point fell in the range of 186 to 187 °C.

Compound `CCCCCn1ncc2c(N)c3c(nc21)CN(Cc1cccc(C(F)(F)F)c1)C3=O` displayed a melting point of 146 to 148 °C. Take `CCCCCCCCCCOc1ccccc1-c1nc(N)c(N=O)c(=O)[nH]1`: the melting point is 144 to 146 °C. To `CCOC(=O)P(=O)(O)C(=O)OCC` belongs 150 to 155 °C; to `CC(C)(C)OC(=O)Nc1cc(Cl)c(Cl)c(Cl)c1`, 120 °C; to `COc1ccc(NC(=O)c2c(Cl)cccc2Cl)c2nccc(NNC(C)=O)c12`, > 250 °C. `CC(C)Cn1cnc2c(NN)nc3ccccc3c21`: the melting point was 202 to 205 °C.

Consider `CCOc1cc(C)ccc1S(N)(=O)=O`, for which the melting point was 136 to 137 °C. As for `Nc1cc2ccncc2c2sc3ccccc3c12`, the melting point was in the range of 220 to 225 °C. On to `COCCOc1ccc(/C=C/C(=O)NS(=O)(=O)c2ccccc2Cl)c(Oc2ncc(C(F)(F)F)cc2Cl)c1`, for which the melting point is 168 to 169 °C. In the case of `CCCCCCCCCCCCCCCCCCCCCCOc1ccc(C(=O)O)cc1` it was 99 to 102 °C; in that of `COC(=O)CN1C(=O)c2ccc3ccccc3c2S1(=O)=O`, 188 °C. Compound `COCCc1nc2c(N)nc3cc(-c4cccc(CO)c4)ccc3c2n1CC(C)(C)O` displayed a melting point of 212 to 213 °C. In the case of `Cc1nc(O)n(COCc2ccccc2)c1Sc1ccccc1` it was 147 to 148 °C; in that of `CCN(CC)C(=O)CCCCCN1CCC(NC(=O)c2cnc3c(OC)cccc3c2Nc2ccc(C(=O)NC3CCN(Cc4ccccc4)CC3)cc2)CC1`, 115 to 120 °C; in that of `Cc1cc(C)cc(P(=O)(O)O)c1`, 197 to 199 °C. Turning to `O=C(NCCO)c1cccc(-c2cccn3c(=O)n(Cc4cccc(C(F)(F)F)c4)nc23)c1`, the melting point was in the range of 148 to 150 °C. To `C=CCOC(=O)CCCCCCCCCCCCCCCCC` belongs 35 to 36 °C. Consider `CCOC(=O)n1nc(S(=O)(=O)Nc2c(Cl)cccc2Cl)nc1NC`, for which the melting point is 202 to 203 °C. To `C=CCOCc1[nH]c(=O)c(CC(C)C)[n+]([O-])c1N` belongs 149 to 151 °C; to `CN(C)S(=O)(=O)c1ccc(-c2ccc(-c3ccc(S(=O)(=O)N(C)C)c(S)c3)cc2)cc1S`, 194 °C. To `COC(=O)COc1ccc(C(=O)C(C)C)cc1` belongs 45 to 46 °C; to `Cc1ccc(-c2cnn(-c3ccc(C)cc3)n2)cc1`, 98 to 99 °C; to `Cc1ccc(Cl)c(N2C(=O)C(=O)c3ccccc32)c1Cl`, 164 to 166 °C.

Take `COC(=O)CC(CSc1nc2ccccc2s1)C(=O)OC` (centres undefined): the melting point was in the range of 46 to 47 °C. Compound `O=c1[nH]sc2c1CCC2` returned a melting point of 177 to 179 °C. Compound `CC(C)(C)c1ccc(C(=O)Nc2cn3cc(-n4ccnc4)ccc3n2)cn1` registered a melting point of 242 to 245 °C.

Regarding `CN(C)C(=O)CSc1nc2ccccc2cc1-c1ccccc1`, the melting point is 86 to 89 °C. To `COCCOCCC1CCCCCc2c1oc(=O)c(C(c1ccccc1)C1CC1)c2O` (centres undefined) belongs 129 to 133 °C. As for `Cc1nc2c(c(Cl)c1C(=O)NC(=N)N)CCCCC2`, the melting point is 210 to 212 °C.

Turning to `OCc1c[nH]c(=S)n1[C@H]1CCc2c(F)cc(F)cc2C1`, the melting point fell in the range of 206 to 207 °C. Take `O=C1CCC(=O)N1CCCCSc1ccncc1`: the melting point was 80 to 81 °C. With `CCOCc1nc2c(N)nc(C)c(C)c2n1NCc1ccccc1`, the melting point was in the range of 149 to 151 °C.

`CC(=O)Nc1ccccc1OCCCO` registered a melting point of 78 to 80 °C. `CCOC(=O)c1c(N=[N+]=[N-])[nH]c(=O)c(I)c1Oc1cc(C)cc(C)c1` yielded a melting point of 216 to 218 °C. To `CNC(=S)n1nc(NC(=O)c2ccccc2)nc1N` belongs > 300 °C. The compound `CC(C)(C)c1ccc(CN2C(=O)N(c3ccccc3)CSC2=NCC(F)(F)F)cc1` yielded a melting point of 113 to 114 °C. In turn, `CC(NC(=O)C(CS)C1CCc2ccccc21)C(=O)O` (centres undefined) displayed a melting point of 121 °C. In the case of `Oc1ccnc(OC(F)F)c1` it was 88.6 to 89.8 °C; in that of `Cn1c(C(F)(F)F)cc(=O)n(-c2cc(Oc3ccc4cc(O)ccc4c3)c(C#N)cc2F)c1=O`, 174 °C; in that of `COc1cc(C(=O)C(C#N)C#N)cc(OC)c1OC`, 158 to 160 °C. In the case of `CC(C)(C)c1cc(-c2nn(CCC#N)c3ncccc23)cc(C(C)(C)C)c1O` it was 158 to 160 °C; in that of `Cc1nc(N2CCCC(CCc3ccccc3)C2=O)sc1C(=O)NCc1ccccc1` (centres undefined), 124 to 126 °C. In turn, `Cn1nc(Br)c(I)c1-c1ccc(F)cc1Cl` showed a melting point of 139 to 141 °C. In the case of `COc1cc(C)c(C(=O)c2c(C(F)(F)F)ccnc2Cl)cc1OCc1ccccc1` it was 116 to 117 °C; in that of `c1cncc(-c2ccc3nncn3c2)c1`, 200 to 202 °C. In the case of `Cc1ccccc1C(=O)Nc1ccc(C(=O)N2CCS(=O)c3ccccc32)cc1` (centres undefined) it was 240 to 241 °C; in that of `Cc1cccc(NC(=O)C2=C(O)c3ccc4ccccc4c3S(=O)(=O)N2C)n1`, 221 to 223 °C; in that of `COc1cc(Cc2cnc(N)nc2N)cc(OC)c1Cl`, 218 °C. In the case of `CN1CCCc2ccc(NC(=O)c3cc4cc(F)ccc4n3Cc3cccc(F)c3)cc21` it was 159 to 160 °C. In the case of `CCc1c(N(C(C)=O)c2cc(C)cc(C)c2)[nH]c(=O)[nH]c1=O`, the melting point fell in the range of 238 to 239 °C. In the case of `Fc1ccc(Cn2c(NC3CCN(CCOc4nc5cccnc5s4)CC3)nc3ccccc32)cc1` it was 151 °C; in that of `N#Cc1sc(Cl)c(Cl)c1Cl`, 63 to 64 °C. In the case of `CC1CC(=O)C1(Cl)CC(Cl)(Cl)Cl` (centres undefined) it was 80 to 81 °C. To `COc1ccc(C(=O)Nc2cccc(-c3cccc4c3/C(=C/c3ccc[nH]3)C(=O)N4)c2)cc1` belongs 209 to 211 °C; to `O=C1NC(=O)C(Cc2ccc(OCCN3c4ccccc4Sc4ccc(C(F)(F)F)cc43)cc2)S1` (centres undefined), 64 °C. `Cc1nc2cc(C(F)(F)F)ccc2n1N` yielded a melting point of 190 to 192 °C. As for `N#Cc1nn(-c2c(Cl)cc(C(F)(F)F)cc2Cl)c(Br)c1O`, the melting point was in the range of 145 to 151 °C.

Compound `Cc1cccc(COc2nn3c(-c4ccccc4)nnc3cc2C23CCC(CC2)C3)n1` yielded a melting point of 162 to 164 °C. As for `O=C(O)Cc1cccc2c1N=C(c1ccccc1F)CC2=O`, the melting point fell in the range of 243 to 245 °C. In the case of `CN(C)C1CCN(c2ccc(NC(=O)n3ccc4cc(Oc5cc(CC(N)=O)ncn5)ccc43)cc2C(F)(F)F)C1` (centres undefined) it was 182 to 184 °C; in that of `CC/C(=C(\c1ccc(/C=C/C(=O)O)cc1)c1ccc(OP(=O)(O)O)cc1)c1ccccc1`, 181 to 183 °C. To `CCCN1CCC=C(c2cccc3[nH]cc(Br)c23)C1` belongs 156 °C; to `NC(=O)c1ccc(-c2nc(O)c3c(n2)CCC3)cc1`, 201 °C. To `COc1ccc(-c2cccc(-c3nc(-c4ccc(C(F)(F)F)cc4)oc3C)c2)cc1` belongs 93 to 94 °C; to `Cc1nc(N2CCCC2)nc(C)c1-c1cccc2c1OC[C@H]2Nc1ccc2c(c1)OC[C@H]2CC(=O)O`, 169 °C; to `CS(=O)(=O)c1ccc(-c2cc(-c3c(-c4ccccn4)nc4ccccn34)ccn2)cc1`, 242 to 244 °C.

Compound `CCN1c2ncc(CN(C)c3ccccc3)cc2C(=O)N(C)c2ccc(Cl)nc21` had a melting point of 55 to 57 °C.

In turn, `CC(=O)NC(C)(C(=O)NS(=O)(=O)c1ccc(C)cc1)C(C)C` (centres undefined) came in with a melting point of 198 to 199 °C.

On to `CC(C)(C)OCOc1cc(NC(=O)NC(=O)c2ccc(C(N)=S)cc2)ccc1OCC(=O)OC(C)(C)C`, for which the melting point was in the range of 198 to 199 °C. In the case of `N#Cc1ccc(N(Cc2ccc(OCc3ccccc3)cc2)n2cnnc2)cc1-c1ccc(F)cc1` it was 211 to 213 °C; in that of `O=C(OCc1ccccc1)c1cc2c(=O)n(Cc3ccccc3)c(=O)[nH]c2s1`, 195 to 197 °C; in that of `CCn1c(Nc2ccc(C)cc2)nnc1[C@@H](C)NS(=O)(=O)c1ccc(Cl)c(Cl)c1`, 93 to 99 °C. In the case of `CNc1cc(C(F)(F)F)cc(N(CCN(C)C)C(=O)N(C)C)n1` it was 101 to 103 °C; in that of `CCOC(=O)c1c[nH]nc1NCc1ccccc1`, 99 to 100 °C.

`CCN(c1nc(C)cc(-c2ccccc2C(F)(F)F)n1)c1ccc(C(C)C)cc1Br` showed a melting point of 101 to 102 °C. Regarding `COc1ccc(S(=O)C(C(=O)NO)C(C)C)cc1` (centres undefined), the melting point was determined as 163 °C.

Turning to `CNC(=O)C1Cc2c(n(C)c3ccc(OCc4ccccc4)cc23)C1` (centres undefined), the melting point lay in the range of 176 to 177 °C. To `COc1ccn(-c2nc(C)c(C(=O)NCc3ccccc3)s2)c(=O)c1` belongs 205 to 208 °C; to `O=CC=Cc1ccc(O)c(O)c1`, 200 to 202 °C; to `Nc1c(Cl)cc(Nc2ncnc3cnc(N[C@H]4CC[C@H](C(=O)N5CCCC5)CC4)nc23)cc1Cl`, 228 to 230 °C. In the case of `Cc1nn(-c2ccncc2)c2nc3cc(F)c(F)cc3c(Cl)c12` it was 226 to 228 °C; in that of `CC(CCNC(=O)c1ccc(Cl)nc1)n1ccnc1` (centres undefined), 137 to 139 °C. To `Cc1cccc(NC(=O)NCC(=O)N(CC(=O)N(C)c2ccccc2)c2ccccc2C)c1` belongs 193 °C; to `O=C1CCCc2ccc(OCCCCN3CCN(c4cccc5c4CCC5)CC3)nc2N1`, 207 to 208 °C; to `CSc1nnc(N2CCN(c3ccc(N4CC(CNC(C)=O)OC4=O)cc3F)CC2)s1` (centres undefined), 222 to 223 °C. Take `O=C1NC(=O)C(=Cc2ccc(C(=O)CCc3ccccc3)nc2)S1`: the melting point was > 250 °C. To `Cc1ccc(CCN2CCN(c3noc4ccccc34)CC2)c2c1C(C)(C)CC(=O)N2` belongs 170 °C.
